Consider 29 compounds from patent US9789086B1, “N-(5-arylamido-2-methylphenyl)-5-methylisooxazole-4-carboxamide deravative, pharmaceutical acceptable salt thereof, method for preparation therof and FMS kinase inhibitor comprising the same as anactive ingredient” (Industry-University Cooperation Foundation Hanyang …, priority 2014, dated 2017).

Broadly, the GI50 is the concentration at which growth is held to half of that of the control.

One assay relates to A375P cell line. Put plainly: A375P cell line proliferation inhibitory activity (MTT assay). It counts as cell-based. As to conditions: A375P cells, 48 hours treatment. Here is the method: A375P cell lines were purchased from ATCC and cultured in a DMEM culture medium (containing 10% FBS and 1% penicillin/streptomycin) in the presence of 5% CO2 at 37° C. The cultured A375P cell lines were taken from culture substrate with 0.05% trypsin-0.02% EDTA and plated at a density of 5×10^3 cells per well in 96-well plates.
(§1) In order to measure cell viability, MTT [3-(4,5-dimethylthiazole-2-yl)-2,5-diphenyltetrazolium bromide] activity assay method (Thiazolyl Blue Tetrazolium Bromide, Sigma Aldrich) was used. Cell lines were cultured in 96-well plates for 24 hours and treated with the compounds of Examples previously prepared. For the compound treatment, 10 mM stocks were prepared, serially diluted in DMSO and added by 0.5 μL at 8 points (final concentration of 0.5%). The cell lines in plates treated with the compounds was cultured for 48 hours, then 15 μL of dye was added to each well and cultured for 4 hours. Then, 100 μL of DMSO solvent was added to each well, and the formed solid was dissolved to measure the absorbance. The absorbance was read at a wavelength of 570 nm using EnVision 2103, and the GI 50 value was calculated using GraphPad Prism 4.0 software, and the results are shown in Table 1 below.

Another assay has as its system U937 cell line. Kind of assay: U937 cell line proliferation inhibitory activity (MTT assay). It counts as cell-based. The settings on record: Homo sapiens, U-937, U937 cells. On the procedure:
as §1
U937 cell lines were purchased from ATCC and cultured in a RPMI culture medium (containing 10% FBS, 1% penicillin/streptomycin and 25 mM HEPES) in the presence of 5% CO2 at 37° C. The cell line proliferation inhibitory activity for Examples previously prepared was measured using the same MTT activity assay method as the A375P cell line proliferation inhibitory activity assay in Experimental Example 1.
A general note: Tetrazolium dyes change colour on reduction, which living cells bring about.

`Cc1cc(NC(=O)c2ccc(N3CCOCC3)c(C(F)(F)F)c2)ccc1NC(=O)c1cnoc1C` [Example 1, 5-methyl-N-(2-methyl-4-(4-morpholino-3-(trifluoromethyl)benzamido)phenyl)isoxazole-4-carboxamide]: the GI50 with A375P cell line and in the assay with U937 cell line was 10 to 30 µM each time.

With `Cc1ccc(NC(=O)c2cnccn2)cc1NC(=O)c1cnoc1C` [Example 17, 5-methyl-N-(2-methyl-5-(pyrazine-2-carboxamido)phenyl)isoxazole-4-carboxamide], the GI50 with A375P cell line and with U937 cell line was 10 to 30 µM throughout.

For `Cc1cc(NC(=O)Nc2ccccc2F)ccc1NC(=O)c1cnoc1C` [Example 38, N-(4-(3-(2-fluorophenyl)ureido)-2-methylphenyl)-5-methylisoxazole-4-carboxamide], the GI50 in the assay with A375P cell line and in the assay on U937 cell line was 10 to 30 µM in each case.

Turning to `Cc1cc(NC(=O)Nc2ccc(Cl)c(Cl)c2)ccc1NC(=O)c1cnoc1C` [Example 40, N-(4-(3-(3,4-dichlorophenyl)ureido)-2-methylphenyl)-5-methylisoxazole-4-carboxamide], the 50% growth inhibitory concentration (GI50) in the assay with A375P cell line lay within 1 to 10 µM; with U937 cell line, 10 to 30 µM.

Regarding `Cc1ccc(NC(=O)c2ccccc2-c2ccccc2)cc1NC(=O)c1cnoc1C` [Example 25, N-(5-biphenyl-2-ylcarboxamido-2-methylphenyl)-5-methylisoxazole-4-carboxamide], the concentration for 50% growth inhibition (GI50) with A375P cell line and with U937 cell line was 10 to 30 µM each time.

For the compound `Cc1ccc(NC(=O)Nc2cccc(Cl)c2)cc1NC(=O)c1cnoc1C` [Example 32, N-(5-(3-(3-chlorophenyl)ureido)-2-methylphenyl)-5-methylisoxazole-4-carboxamide], the concentration for 50% growth inhibition (GI50) with A375P cell line and with U937 cell line was 10 to 30 µM each time.

Regarding `Cc1cc(NC(=O)Nc2cccc(Cl)c2)ccc1NC(=O)c1cnoc1C` [Example 37, N-(4-(3-(3-chlorophenyl)ureido)-2-methylphenyl)-5-methylisoxazole-4-carboxamide], the GI50 in the assay on A375P cell line and in the assay on U937 cell line was 10 to 30 µM in each case.

For the compound `Cc1ccc(NC(=O)Cc2ccc(-c3ccccc3)cc2)cc1NC(=O)c1cnoc1C` [Example 22, N-(5-(2-(biphenyl-4-yl)acetamido)-2-methylphenyl)-5-methylisoxazole-4-carboxamide], the GI50 in the assay on A375P cell line and in the assay on U937 cell line was 10 to 30 µM in each case.

`Cc1ccc(NC(=O)C2Cc3ccccc3N2)cc1NC(=O)c1cnoc1C` (stereo not shown) [Example 19, N-(5-(indoline-2-carboxamido)-2-methylphenyl)-5-methylisoxazole-4-carboxamide]: the GI50 with A375P cell line and in the assay with U937 cell line was 10 to 30 µM each time.

As to `Cc1ccc(NC(=O)c2cnc3ccccc3c2)cc1NC(=O)c1cnoc1C` [Example 27, 5-methyl-N-(2-methyl-5-(quinoline-3-carboxamido)phenyl)isoxazole-4-carboxamide], the 50% growth inhibitory concentration (GI50) in the assay on A375P cell line and in the assay with U937 cell line was 10 to 30 µM in each case.

In the case of `Cc1ccc(NC(=O)C(c2ccc(Cl)cc2)c2ccc(Cl)cc2)cc1NC(=O)c1cnoc1C` [Example 13, N-(5-(2,2-bis(4-chlorophenyl)acetamido)-2-methylphenyl)-5-methylisoxazole-4-carboxamide], the GI50 in the assay with A375P cell line and with U937 cell line was 10 to 30 µM in each case.

`Cc1ccc(NC(=O)c2cc(-n3ccnc3C)cc(C(F)(F)F)c2)cc1NC(=O)c1cnoc1C` [Example 9, 5-methyl-N-(2-methyl-5-(3-(2-methyl-1H-imidazol-1-yl)-5-(trifluoromethyl)benzamido)phenyl)isoxazole-4-carboxamide]: the values for the GI50 in the assay on A375P cell line and in the assay with U937 cell line were 10 to 30 µM and less than 1 µM, respectively.

With `Cc1ccc(NC(=O)Cc2ccccc2F)cc1NC(=O)c1cnoc1C` [Example 8, N-(5-(2-(2-fluorophenyl)acetamido)-2-methylphenyl)-5-methylisoxazole-4-carboxamide], the concentration for 50% growth inhibition (GI50) in the assay with A375P cell line and in the assay on U937 cell line was 10 to 30 µM in each case.

As for `Cc1cc(NC(=O)c2cc(N3CCN(C)CC3)cc(C(F)(F)F)c2)ccc1NC(=O)c1cnoc1C` [Example 2, 5-methyl-N-(2-methyl-4-(3-(4-methylpiperazin-1-yl)-5-(trifluoromethyl)benzamido)phenyl)isoxazole-4-carboxamide], the 50% growth inhibitory concentration (GI50) in the assay on A375P cell line and with U937 cell line was 10 to 30 µM throughout.

For the compound `Cc1ccc(NC(=O)c2cc(N3CCN(C)CC3)cc(C(F)(F)F)c2)cc1NC(=O)c1cnoc1C` [Example 3, 5-methyl-N-(2-methyl-5-(3-(4-methylpiperazin-1-yl)-5-(trifluoromethyl)benzamido)phenyl)isoxazole-4-carboxamide], the GI50 was 10 to 30 µM in the assay with A375P cell line and less than 1 µM in the assay with U937 cell line.

In the case of `Cc1ccc(NC(=O)c2ccc(-c3ccccc3)cc2)cc1NC(=O)c1cnoc1C` [Example 26, N-(5-biphenyl-4-ylcarboxamido-2-methylphenyl)-5-methylisoxazole-4-carboxamide], the GI50 in the assay with A375P cell line and in the assay with U937 cell line was 10 to 30 µM in each case.

On to `Cc1ccc(NC(=O)Nc2ccc(Cl)c(C(F)(F)F)c2)cc1NC(=O)c1cnoc1C` [Example 30, N-(5-(3-(4-chloro-3-(trifluoromethyl)phenyl)ureido)-2-methylphenyl)-5-methylisoxazole-4-carboxamide], for which the concentration for 50% growth inhibition (GI50) in the assay with A375P cell line and in the assay on U937 cell line was 10 to 30 µM in each case.

For the compound `CCCS(=O)(=O)Nc1ccc(NC(=O)c2cnoc2C)c(C)c1` [Example 43, 5-methyl-N-(2-methyl-4-(propylsulfonamido)phenyl)isoxazole-4-carboxamide], the GI50 with A375P cell line and in the assay on U937 cell line was 10 to 30 µM each time.

`Cc1ccc(NC(=O)c2cc(-n3cncc3C)cc(C(F)(F)F)c2)cc1NC(=O)c1cnoc1C` [Example 10, 5-methyl-N-(2-methyl-5-(3-(5-methyl-1H-imidazol-1-yl)-5-(trifluoromethyl)benzamido)phenyl)isoxazole-4-carboxamide]: the GI50 was 10 to 30 µM in the assay on A375P cell line and less than 1 µM with U937 cell line.

Consider `Cc1cc(NC(=O)Nc2ccc(Cl)c(C(F)(F)F)c2)ccc1NC(=O)c1cnoc1C` [Example 35, N-(4-(3-(4-chloro-3-(trifluoromethyl)phenyl)ureido)-2-methylphenyl)-5-methylisoxazole-4-carboxamide], for which the 50% growth inhibitory concentration (GI50) with A375P cell line and in the assay on U937 cell line was 10 to 30 µM in each case.

For `Cc1ccc(NC(=O)c2cnn(-c3ccccc3)c2C(F)(F)F)cc1NC(=O)c1cnoc1C` [Example 23, 5-methyl-N-(2-methyl-5-(1-phenyl-5-(trifluoromethyl)-1H-pyrazole-4-carboxamido)phenyl)isoxazole-4-carboxamide], the GI50 in the assay on A375P cell line was 10 to 30 µM; with U937 cell line it was less than 1 µM.

Consider `Cc1ccc(NC(=O)c2ccc3[nH]nnc3c2)cc1NC(=O)c1cnoc1C` [Example 18, N-(5-(1H-benzo[d][1,2,3]triazole-5-carboxamido)-2-methylphenyl)-5-methylisoxazole-4-carboxamide], for which the GI50 in the assay with A375P cell line and with U937 cell line was 10 to 30 µM each time.

Turning to `Cc1cc(NC(=O)Nc2cccc(C(F)(F)F)c2)ccc1NC(=O)c1cnoc1C` [Example 36, 5-methyl-N-(2-methyl-4-(3-(3-(trifluoromethyl)phenyl)ureido)phenyl)isoxazole-4-carboxamide], the concentration for 50% growth inhibition (GI50) in the assay on A375P cell line and with U937 cell line was 10 to 30 µM in each case.

Turning to `Cc1ccc(NC(=O)C2(C)CCc3c(C)c(O)c(C)c(C)c3O2)cc1NC(=O)c1cnoc1C` (stereo not shown) [Example 14, N-(5-(6-hydroxy-2,5,7,8-tetramethylchroman-2-carboxamido)-2-methylphenyl)-5-methylisoxazole-4-carboxamide], the GI50 with A375P cell line and in the assay with U937 cell line was 10 to 30 µM throughout.

As for `Cc1ccc(NC(=O)Nc2ccccc2F)cc1NC(=O)c1cnoc1C` [Example 31, N-(5-(3-(2-fluorophenyl)ureido)-2-methylphenyl)-5-methylisoxazole-4-carboxamide], the 50% growth inhibitory concentration (GI50) with A375P cell line and in the assay with U937 cell line was 10 to 30 µM throughout.

Turning to `CCCS(=O)(=O)Nc1ccc(C)c(NC(=O)c2cnoc2C)c1` [Example 42, 5-methyl-N-(2-methyl-5-(propylsulfonamido)phenyl)isoxazole-4-carboxamide], the GI50 in the assay with A375P cell line and in the assay with U937 cell line was 10 to 30 µM throughout.

On to `Cc1ccc(NC(=O)Nc2ccc(Cl)c(Cl)c2)cc1NC(=O)c1cnoc1C` [Example 34, N-(5-(3-(3,4-dichlorophenyl)ureido)-2-methylphenyl)-5-methylisoxazole-4-carboxamide], for which the values for the GI50 in the assay on A375P cell line and in the assay with U937 cell line were 10 to 30 µM and 1 to 10 µM, respectively.

For `Cc1ccc(NC(=O)c2cc(N3CCOCC3)cc(C(F)(F)F)c2)cc1NC(=O)c1cnoc1C` [Example 44, 5-methyl-N-(2-methyl-5-(3-morpholino-5-(trifluoromethyl)benzamido)phenyl)isoxazole-4-carboxamide], the figures for the concentration for 50% growth inhibition (GI50) in the assay with A375P cell line and in the assay with U937 cell line were 10 to 30 µM and less than 1 µM, respectively.

Take `Cc1ccc(NC(=O)c2ccc(N3CCOCC3)c(C(F)(F)F)c2)cc1NC(=O)c1cnoc1C` [Example 4, 5-methyl-N-(2-methyl-5-(4-morpholino-3-(trifluoromethyl)benzamido)phenyl)isoxazole-4-carboxamide]: the GI50 was 10 to 30 µM with A375P cell line and less than 1 µM in the assay with U937 cell line.
